Results published in ChEMBL document CHEMBL4257572, “Semisynthesis of ent-norstrobane diterpenoids as potential inhibitor for factor Xa” (Bioorg Med Chem Lett, 2018).

target: Coagulation factor X (Homo sapiens, UniProt P00742); assay: Inhibition of human coagulation factor 10a using Z-D-Arg-Gly-Arg-pNA.2HCl as substrate preincubated for 15 mins followed by substrate addition by UV absorption assay
Sequence (P00742 41-179 limits assumed): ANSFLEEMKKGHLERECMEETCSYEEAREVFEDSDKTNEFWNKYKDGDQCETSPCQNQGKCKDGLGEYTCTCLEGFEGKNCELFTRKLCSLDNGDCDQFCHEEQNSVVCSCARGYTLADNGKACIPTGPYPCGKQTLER
Sequence (P00742 235-488 limits assumed): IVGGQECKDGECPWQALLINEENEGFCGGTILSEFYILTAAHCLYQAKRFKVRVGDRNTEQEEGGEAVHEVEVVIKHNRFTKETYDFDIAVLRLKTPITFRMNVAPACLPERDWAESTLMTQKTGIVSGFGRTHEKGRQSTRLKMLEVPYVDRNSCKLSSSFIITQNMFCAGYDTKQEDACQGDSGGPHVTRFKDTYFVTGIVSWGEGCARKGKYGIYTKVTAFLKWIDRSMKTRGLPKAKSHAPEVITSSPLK

| IC50 | SMILES |
| --- | --- |
| 5.73 µM | CC(=O)O[C@@H]1CC[C@@]2(C)[C@@H]3CC[C@](C)(O)CC=C3CC[C@@H]2C1(C)C |
| 2.57 µM | C[C@@]1(CO)C[C@@H](O)C[C@@]2(C)[C@@H]3CC[C@](C)([C@@H](O)CO)C=C3CC[C@H]12 [KIRENOL] |
| 8.45 µM | CC(=O)O[C@@H]1CC[C@@]2(C)[C@@H]3CC[C@](C)(CO)C=C3CC[C@@H]2C1(C)C |
| 11.4 µM | CC1(C)[C@H](O)CC[C@@]2(C)[C@@H]3CC[C@](C)([C@@H](O)CO)C=C3CC[C@H]12 [DARUTIGENOL] |
| 0.081 µM | CC(=O)OC[C@]1(C)C[C@@H](OC(C)=O)C[C@@]2(C)[C@@H]3CC[C@](C)(O)CC=C3CC[C@H]12 |
| 5.62 µM | CC(=O)OC[C@]1(C)C[C@@H](OC(C)=O)C[C@@]2(C)[C@@H]3CC[C@](C)([C@@H](O)CO)C=C3CC[C@H]12 |
| 1.07 µM | CC(=O)OC[C@]1(C)C[C@@H](OC(C)=O)C[C@@]2(C)[C@@H]3CC[C@](C)(CO)C=C3CC[C@H]12 |
| 1.02 µM | CC1(C)OCC([C@]2(C)C=C3CC[C@@H]4C(C)(C)[C@H](O)CC[C@@]4(C)[C@@H]3CC2)O1 (stereo not given in full) |
| 7.16 µM | CC1(C)OCC([C@]2(C)C=C3CC[C@@H]4[C@](C)(CO)C[C@@H](O)C[C@@]4(C)[C@@H]3CC2)O1 (stereo not given in full) |
| 3.03 µM | CC(=O)O[C@@H]1CC[C@@]2(C)[C@@H]3CC[C@](C)([C@@H](O)CO)C=C3CC[C@@H]2C1(C)C |
